# Experimental data: article PMC12700220, “Synthesis, photochemical and biological evaluation of novel photoswitchable glycomimetic ligands of Pseudomonas aeruginosa LecB” (RSC Advances, 2025)
# Experiments:
# LecB [1] = molecular target: T1, LecB (Pseudomonas aeruginosa, UniProt Q9HYN5); assay: ITC after […] nm illumination; format: binding; design: N-terminal 6xHis-tagged LecB
# LecB [2] = molecular target: T1, LecB; assay: (soak, […] Å) and ITC; format: binding; design: N-terminal 6xHis-tagged LecB (homotetramer)
# T1 sequence (Q9HYN5 entry or part of it): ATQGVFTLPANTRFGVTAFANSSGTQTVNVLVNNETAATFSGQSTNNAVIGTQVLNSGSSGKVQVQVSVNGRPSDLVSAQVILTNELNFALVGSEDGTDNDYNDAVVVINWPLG
SMILES,Kd (LecB [1]),Kd (LecB [2])
"C[C@@H]1O[C@H](CNS(=O)(=O)c2ccc(/N=N\c3ccccc3)cc2)[C@@H](O)[C@H](O)[C@@H]1O (mixture of isomers) [photofucose-2, cis-photofucose-2]",4.71 ± 2.61 µM,
"C[C@@H]1O[C@H](CNS(=O)(=O)c2ccc(/N=N/c3ccccc3)cc2)[C@@H](O)[C@H](O)[C@@H]1O [photofucose-2, 4-((E)-phenyldiazenyl)-N-(((2R,3S,4R,5S,6S)-3,4,5-trihydroxy-6-methyltetrahydro-2H-pyran-2-yl)methyl)benzenesulfonamide]",,1.82 ± 0.408 µM
